Where “and” joins values, the source holds several entries; their conditions need not be identical. Identical values can stand only once. Marks after values point to notes of the source that are not given here.
Columns and labels:
[1] = test system: carrageenin-induced paw oedema; assay: Determination of ID50, carrageenin-induced paw oedema; format: in vivo, rat; conditions: five times the oral ID50 for oedema inhibition, 2 h after carrageenin
Method: ID50, relative to the products under examination (considered in table 1), has been evaluated using the anti-inflammatory response to carrageenin-induced paw oedema (according to Wong et al, J Pharmacol Exp, 1973:1855; pages 127-138). The products, suspended in 1% CMC, were administered orally in a total volume of 5 ml/rat. 1 h later, 0.1 ml of 1% carrageenin sterile solution was injected into the hind subplantar aponeurosis. Volume of the paw was measured immediately prior to injection of the phlogogen and 2 h thereafter, by means of a plethysmograph. The percentage of inhibition of oedema was calculated as follows: 1 - ΔV treated/ΔV control x 100 [formula] where ΔV = final V - initial V.

[2] = test system: Adjuvant arthritis; assay: Adjuvant arthritis: joint inflammation and patellar bone erosion; format: in vivo, rats; conditions: patellar bone mass; MED 15 25, 50, 100mg/kg, piroxicam 3mg/kg
Method: The drugs were administered daily by oral gavage for 4 days (day 0-3); piroxicam and MED 15 were dissolved in 5% Gum arabic + 0.01% Tween 80, and administered in a volume of 0.5ml. Piroxicam was administered as 3mg/kg and MED 15 was administered as 25, 50 and 100mg/kg doses. Table 8 bis illustrating dosage regimes. L=left stifle joint, R=Right stifle joint.
Under halothane anaesthesia, rats received 200µg of heat-killed finely ground Mycobactyerium tubercolosis in 25µl (80mg/10ml sterile saline) injected intra-articulary into the left stifle joint. The contralateral joint received 25µl 0.9% sterile saline. Control animals received 25µl of 0.9% sterile saline in both knees. SGE 50µl microsyringes with a volume lock calibrated at 25µl were used with 30G stainless steel needles. Solutions were prepared sterile, and aseptic technique was used throughout, with sterilisation of syringes between groups.
The rats were killed by carbon dioxide suffocation. The body weight was noted and the skin overlying the stifle joints was divided and the joint diameters assessed in mm using Mitutoyo vernier callipers (530-312, 0.02mm).
The patellae were dissected, weighed (Sartorius, 0.01mg) and then immersed in 1ml digestion buffer (see below) to remove soft tissue.
Digestive buffer was prepared fresh to the following formula; disodium hydrogen orthophosphate 20mM, EDTA 1mM and diothiothreitol at 2mM. […]

[3] = test system: isolated, perfused, immature rat stomach; assay: Antisecretive activity in vitro, isolated perfused immature rat stomach; conditions: agonist Histamine 10^-4 M, antagonist 10^-4 M
Description: Male Wistar rats, 250±10 g b.w. (Charles River, Calco, Como, Italy), quarantined for five days prior to the beginning of the trial and divided into groups of 3 animals per cage, were used for determination of gastric lesions and of ID50 determination. Immature male Wistar rats, 30-45 g b.w. (Harlan Nossan, Milano) were used for the determination of the antisecretory effect on isolated rat stomach. The guinea-pigs used were the Dunkin Hartley guinea-pigs (Harlan Nossan, Milano, Italy).
At the beginning, the isolated, perfused, immature rat stomach, treated externally with the study product, was used. We preferred to use the isolated stomach in toto rather than strips (B.R. No. 18, 19 and 20) in order not to exclude a section of the stomach (the antrum), unimportant for acid secretion but very important for the secretion of bicarbonates and bioactive peptides (b.r. No. 21, 22). The results were encouraging, since amtolmetin guacyl inhibited acid production stimulated by the three classic agonists (histamine, acetilcholine and gastrin) both using varying doses of agonist or varying doses of amtolmetin guacyl (Table 5).
The results are expressed as mean±S.E.

[4] = test system: diuresis; assay: Diuresis in normally hydrated rats; format: in vivo; conditions: normally hydrated rats treated orally for 8 consecutive days (figure 13)
Method: In the course of various studies conducted on animals to show the lack of renal impairment, a test was carried out to compare the diuresis in normally hydrated rats treated orally for 8 consecutive days with amtolmeting guacyl and diclofenac, which is also a NSAID.

[5] = test system: rat gastric mucosa; conditions: male, Wistar, in vivo, po, 4 days
Method: The animals entered in the trial, randomized and divided into groups of 6 rats each, were fasted for 16 h prior to treatment, with access to water ad libitum. They were re-fed 1 h after drug administration. The compound 2-methoxyphenyl-1-methyl-5p-methylbenzoyl-pyrrol-2-acetamido acetate and the other reference NSAIDs, suspended in 1% carboxymethylcellulose (CMC) solution, were orally administered by gastric gavage in a volume of 6ml/kg for four consecutive days. Controls received the vehicle in the same way as the treated animals. 4 h after the last administration the animals were killed by ether overdose; the stomachs were removed, rinsed with 10 ml of saline and immersed in 1% formalin. They were later opened along the greater curvature and the mucosa examined for lesions.
The seriousness of the lesion was quantified according to a scale graduated from 1 to 3 according to the size of the lesions: 1= ulcer < 1mm; 2= ulcer 1-2mm; 3= ulcer > 2mm. The total sum was divided by 10 to obtain the "erosion index". The gastric lesions were evaluated by two independent investigators under blind conditions according to Main & Whittle method (BJ Pharmac 1975:53; p. 217-224).
Since the average daily dose in man (for the anti-inflammatory activity) is 600 mg, the comparative efficacious dose in the rat is in the ratio of 12:1. More precisely, comparative evaluation with the other NSAID compounds was calculated as follows: 600 mg/die: 50 mg/kg = daily dose of reference NSAID in man: X [formula] where X represents the daily dose of the reference NSAID in rat. This criterion keeps into account the "real" activity ratio in man. In this work the "ratio to rat dosage" has also been included which keeps into account ratios homogeneous to the same animal species. To evaluate the "ratio to rat dosage" the ID50 has been determined using the carrageenin-induced oedema as inflammatory test.
In order to exacerbate possible side effects on the stomach the dosage of amtolmetin guacyl was quadruplicated.

[6] = test system: post-traumatic arthralgia; assay: Clinical trials: analgesic properties in post-traumatic arthralgia; format: in vivo, man; conditions: Amtolmetin guacyl 600mgx2-daily, Diclofenac 50mgx2-daily, 15 patients each
Description: The same can be said in the treatment of post-traumatic arthralgia.

[7] = test system: gastric mucosa; assay: Histological evaluation of the gastric mucosa by an independent laboratory; conditions: single animals; oral gavage: amtolmetin guacyl 50 mg/kg, diclofenac 7.5 mg/kg, tolmetin 66.6 mg/kg
Method: In order to obtain a histological evaluation of the results obtained in our laboratories, an independent laboratory was provided with identical samples of the material evaluated by us, under totally blind conditions.
Controls received the vehicle only, also by oral gavage. 4 h after the final administration the animals were killed by ether overdose and the stomachs removed, rinsed in saline and immersed in formalin 4%.

With `CN1C(C(=O)Nc2ccccn2)=C(O)c2ccccc2S1(=O)=O` [Piroxicam, piroxicam] the “Ratio to rat dosage (mg/kg) (ID50 mg/kg x5)” value [1] was 13.8 mg/kg and the “protection against bone loss” value [2] was “greatest protection against bone loss”.

For `CN/C(=N/CCSCc1nc[nH]c1C)NC#N` [Cimetidine, cimetidine, reference compound], the “% inhib.” value [3] was 78.6% and the “Δacid” value ([3]; mean±S.E.) was 14.3 ± 7.2 nmol/min.

`O=C(O)Cc1ccccc1Nc1c(Cl)cccc1Cl` [Diclofenac sodium, diclofenac sodium] was tested, and the diuresis [4] was “clear decrease”, the “Ratio to rat dosage (mg/kg) (ID50 mg/kg x5)” value [1] was 15.8 mg/kg and the “further gastric findings (table footnotes)” value [5] was “Each value is the mean of 6 rats. ^a)Diffuse haemorrhagic gastritis was also present”. For the same compound, the “Duration” value [6] was 180 min, the “Latency” value [6] was 20 min and the “Max. time effect” value [6] was 60 min. For the same compound, the Macroscopic findings [7] was 2 and 4 and 7 and the Microscopic findings [7] was 2* and 3* and 9*.

`Cc1ccc(C(=O)c2ccc(CC(=O)O)n2C)cc1` [Tolmetin, tolmetin] was tested, and the Gastrolesive index [5] was 79.7, the Macroscopic findings [7] was 3 and 0 (2×) and the Microscopic findings [7] was 2+ and 0+ and 1+.

— patent publication EP1310250A1, “Use of the compound 2-methoxyphenyl-1-methyl-5P-methylbenzoyl-pyrrol-2-acetamido acetate for the production of an antiinflammatory drug with prevention of gastric hypersecretion and renal impairment” (MEDOSAN Ricerca S.r.l., priority 1997, dated 1999)
